# According to patent US20210346359A1, “Use of CFTR Modulators For Treating Cerebrovascular Conditions” (Qanatpharma AG, priority 2018, published 2021):
# “Also recorded” adds a separate entry of the source. Where two headings read alike, the source gives them in different places.
# Experiments:
# [1] = system: cremaster skeletal muscle resistance arteries; assay: Cremaster skeletal muscle resistance artery myogenic tone and phenylephrine response with CFTR inhibition in vitro; settings: wild-type mouse arteries; in vitro 100 nmol/L for 30 minutes
# Description: Isolation and functional assessment of resistance arteries: Mouse olfactory (a first branch of the anterior cerebral artery) and PCAs were carefully dissected, cannulated onto micropipettes, stretched to their in vivo lengths and pressurized to 45 mmHg, as previously described (3,6); mouse skeletal muscle resistance arteries were dissected from the cremaster muscle, cannulated and pressurized to 60 mmHg. All functional experiments were conducted in 3-morpholinopropanesulfonic acid (MOPS) buffered saline at 37° C. with no perfusion. […]
# Myogenic responses were elicited by step-wise 20 mmHg increases in transmural pressure from 20 mmHg to 80 mmHg (olfactory arteries) or 100 mmHg (posterior cerebral arteries and cremaster skeletal muscle resistance arteries). At each pressure step, vessel diameter (diaactive) was measured once a steady state was reached (5 min). Vessels requiring treatment (e.g., CFTR(inh)-172) were incubated with the reagent in MOPS for 30 min and myogenic responses were then assessed in the presence of that reagent. Following completion of all diaactive measurements, MOPS buffer was replaced with a Ca^2+-free version and maximal passive diameter (diamax) was recorded at each pressure step. […]
# [2] = system: olfactory cerebral artery; settings: recent observations (6); cited from earlier work
# [3] = system: posterior cerebral arteries; assay: Phenylephrine responses of isolated posterior cerebral arteries; assay type: in vivo, mouse; settings: Mus musculus, posterior cerebral arteries, log scale, read-out: log EC50 of phenylephrine response (converted)
# Description: (§1) Isolation and functional assessment of resistance arteries: Mouse olfactory (a first branch of the anterior cerebral artery) and PCAs were carefully dissected, cannulated onto micropipettes, stretched to their in vivo lengths and pressurized to 45 mmHg, as previously described (3,6); mouse skeletal muscle resistance arteries were dissected from the cremaster muscle, cannulated and pressurized to 60 mmHg. All functional experiments were conducted in 3-morpholinopropanesulfonic acid (MOPS) buffered saline at 37° C. with no perfusion. Vasomotor responses to phenylephrine (5 μmol/L for posterior cerebral arteries, 10 μmol/L for cremaster skeletal muscle arteries) provided an assessment of vessel viability at the beginning and end of each experiment. Arteries failing to show ≥25% constriction to phenylephrine were excluded.
# (§2) Myogenic tone was calculated as the percent constriction in relation to the maximal diameter at each respective transmural pressure: tone (% of diamax)=[(diamax−diaactive)/diamax]×100, where diaactive is the vessel diameter in MOPS containing Ca^2+ and diamax is the diameter in Ca^2+-free MOPS. Analyses of vasomotor responses to phenylephrine used the same calculation, only in this case, diaactive represents the vessel diameter at steady state following application of the given agent and diamax represents the maximal diameter measured under Ca^2+-free conditions.
# [4] = system: olfactory cerebral arteries; assay: Phenylephrine responses of isolated olfactory cerebral arteries; assay type: in vivo, mouse; settings: Mus musculus, olfactory cerebral arteries, log scale, read-out: log EC50 of phenylephrine response (converted)
# Description: as §1, §2
# TNF = target: T1, TNF (Mus musculus, UniProt P06804); settings: HF and SAH models, cited from earlier work
# T1 sequence (P06804 1-235): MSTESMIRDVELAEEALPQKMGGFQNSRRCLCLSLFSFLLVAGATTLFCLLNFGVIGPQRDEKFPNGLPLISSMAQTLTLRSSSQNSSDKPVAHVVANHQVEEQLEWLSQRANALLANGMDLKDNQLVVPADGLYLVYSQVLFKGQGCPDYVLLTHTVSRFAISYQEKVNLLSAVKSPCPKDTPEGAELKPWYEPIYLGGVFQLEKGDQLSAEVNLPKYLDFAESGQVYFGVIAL
molecule,measurement,setting,value
O=C(O)c1ccc(/C=C2\SC(=S)N(c3cccc(C(F)(F)F)c3)C2=O)cc1 [CFTR(inh)-172],cremaster skeletal muscle resistance artery myogenic tone,[1],does not affect; also recorded: not altered
same,phenylephrine dose-response relationship in cremaster arteries,[1],not altered
same,olfactory cerebral artery myogenic tone,[2],augments
CNC[C@H](O)c1cccc(O)c1 [phenylephrine],EC50,[3]; CFTRΔF508 mice,1000 nM
same,EC50,[3]; HF mice untreated,562 nM
same,EC50,[3]; Sham (HF study),501 nM
same,EC50,[3]; WT littermates,1480 nM
same,EC50,[4]; SAH untreated (C18 study),977 nM
same,EC50,[4]; SAH untreated (lumacaftor study),1170 nM
same,EC50,[4]; Sham (C18 SAH study),3020 nM
same,EC50,[4]; Sham (lumacaftor SAH study),1620 nM
etanercept,HF- and SAH-mediated enhancement of cerebrovascular vasoconstriction (augmented myogenic tone),"TNF; earlier work (3,4,6)",eliminates
same,cerebral perfusion,"TNF; earlier work (3,4,6)",normalizes
same,neuronal injury,"TNF; earlier work (5,6)",reduces
